Reference: BigSolDB 2.1

CC(C)(Oc1ccc(C2CC2(Cl)Cl)cc1)C(=O)O (stereo not given)
solubility (mole fraction)
Conditions	278.15 K	283.15 K	288.15 K	293.15 K	298.15 K	303.15 K	308.15 K	313.15 K	318.15 K	323.15 K
in DMF	0.218	0.236	0.257	0.277	0.296	0.319	0.342	0.365	0.385	0.407
in ethanol	0.156	0.171	0.187	0.203	0.219	0.239	0.259	0.277	0.294	0.312
in ethylene glycol	0.0348	0.0395	0.044	0.0486	0.053	0.0592	0.0652	0.0711	0.077	0.0823
in n-propanol	0.0758	0.0854	0.0948	0.104	0.113	0.125	0.137	0.148	0.159	0.169
in water	5.95e-07	7.63e-07	9.11e-07	1.1e-06	1.31e-06	1.54e-06	1.77e-06	2.05e-06	2.33e-06	2.65e-06
